What was measured:
[1] = Maximum solubility in fat phase excipients determined by HPLC; format: physicochemical
From the text: In order to obtain an oil in water emulsion containing a compound with the general formula (I) in the fat phase, pre-formulation studies have been conducted to provide evidence of the excipients allowing good solubilisation as well as good stability of the active ingredient.
(1) List of fat phase excipients in which the maximum solubility has been determined by HPLC:
The limit, below which the compounds of general formula (1) are considered non-solubilized, is 0.1% by weight.

[2] = Stability of compound A in its principal solvents; format: physicochemical
From the text: (2) Stability of compound A in its principal solvents:
(§1) The limits fixed for high stability are 95%-105% as a percentage relative to TO.

[3] = Stability of compound A in mixtures of excipients (solvent/surfactants) determined by HPLC; format: physicochemical
From the text: (3) Stability of compound A in mixtures of excipients (solvent/surfactants) determined by HPLC:
Studies of stability of compound A solubilised in oils (in which it is stable) in the presence of surfactants have been conducted:
as §1

[4] = "Single time" cutaneous penetration study ex vivo (Franz cells, 16 h); format: in vitro ADME; conditions: ex vivo human skin, the 2 formulae evaluated
Procedure: Two types of cutaneous penetration studies were carried out ex vivo on human skin. In these studies compound A corresponds to 3″-tert-butyl-4′-(2-hydroxy-ethoxy)-4″-pyrrolidin-1-yl-[1,1′;3′,1″]-terphenyl-4-carboxylic acid.
“Single Time” Cutaneous Penetration Study:
In this study the Formula is applied for 16 hours to the surface of the skin. After the application COMPOUND A is quantified in the different compartments of the skin: stratum corneum, epidermis, dermis and receiving liquid according to the validated bioanalysis method.
The bioanalysis was conducted by mass spectrometry in tandem by positive electrospray ionisation using a Xevo device (Waters). The limit of quantification for compound A is 1 ng/mL.
The conditions of LC/MS/MS developed enabled up to 0.1% of the doe applied in each of the compartments to be detected (unabsorbed dose, stratum, epidermis, dermis and receiving liquid).
In this type of “single point” study the parameters considered are: • a. The distribution profile in the different compartments (qualitative data) • b. The penetration in the epidermis+dermis compartment (numerical data) FIG. 1

Maximum solubility ([1]; in Arlasolve DMI (Dimethyl Isosorbide)): 0.400% | Maximum solubility ([1]; in Benzyl alcohol (Benzyl Alcohol)): 2.388% | Maximum solubility ([1]; in Brij 30 (Laureth-4)): 2.03% | Maximum solubility ([1]; in Capryol 90 (Propylene glycol monocaprylate)): 0.802% | Maximum solubility ([1]; in Crodamol IPM (Isopropyl myristate)): <0.1% | Maximum solubility ([1]; in Hydrolite 5P (Pentylene glycol)): 0.482% | Maximum solubility ([1]; in Phenoxetol (Phenoxyethanol)): 1.957% | Stability results ([2]; COMPOUND A 0.005% in Miglyol 812N (Caprylic/capric triglycerides), 40° C.): Stable/Ok 6 Months | Stability results ([2]; COMPOUND A 0.005% in Sweet almond oil, 40° C.): Stable/Ok 6 Months | Stability results ([2]; COMPOUND A 0.05% in Arlacel 83V Pharma (Sorbitan Sesquioleate), 40° C.): Stable/Ok 6 Months | Stability results ([2]; COMPOUND A 0.05% in Arlamol E (PPG-15 stearyl ether), 40° C.): Stable/Ok 6 Months | Stability results ([2]; COMPOUND A 0.05% in Arlasolve DMI (Dimethyl Isosorbide)): Unstable | Stability results ([2]; COMPOUND A 0.05% in Benzyl Alcohol): Unstable | Stability results ([2]; COMPOUND A 0.05% in Brij 30 (Laureth-4)): Unstable | Stability results ([2]; COMPOUND A 0.05% in Capryol 90 (Propylene glycol monocaprylate), 40° C.): Stable/Ok 6 Months | Stability results ([2]; COMPOUND A 0.05% in Crodamol DA (Diisopropyl Adipate), 40° C.): Stable/Ok 6 Months | Stability results ([2]; COMPOUND A 0.05% in Dipropylene Glycol Care (Dipropylene glycol)): Unstable | Stability results ([2]; COMPOUND A 0.05% in Eutanol G (Octyldodecanol)): Unstable | Stability results ([2]; COMPOUND A 0.05% in Labrafil M1944CS (Apricot Kernel Oil PEG-6 Ester), 40° C.): Stable/Ok 6 Months | Stability results ([2]; COMPOUND A 0.05% in Lauroglycol FCC (Propylene glycol laurate), 40° C.): Stable/Ok 6 Months | Stability results ([2]; COMPOUND A 0.05% in Marcol 152 (Parrafinum liquidum)): Unstable | Stability results ([2]; COMPOUND A 0.05% in Myritol PC (Propylene glycol dicaprylate/dicaprate)): Unstable | Stability results ([2]; COMPOUND A 0.05% in Phenoxetol (Phenoxyethanol), 40° C.): Stable/Ok 6 Months | Stability results ([3]; COMPOUND A 0.05% in Arlacel 165/Arlamol E, 40° C.): Stable/Ok 3 Months | Stability results ([3]; COMPOUND A 0.05% in Arlacel 165/Lauroglycol FCC): Unstable | Stability results ([3]; COMPOUND A 0.05% in Brij 721/Arlamol E, 40° C.): Stable/Ok 3 Months | Stability results ([3]; COMPOUND A 0.05% in Brij 721/Lauroglycol FCC, 40° C.): Stable/Ok 3 Months | Stability results ([3]; COMPOUND A 0.05% in Cremophor EL/Labrafil M1944CS): Unstable | Stability results ([3]; COMPOUND A 0.05% in Cremophor EL/Lauroglycol FCC): Unstable | Stability results ([3]; COMPOUND A 0.05% in Eumulgin B2/Arlamol E, 40° C.): Stable/Ok 3 Months | Stability results ([3]; COMPOUND A 0.05% in GlucateSS-Glucamate SSE-20/Arlamol E): Unstable | Stability results ([3]; COMPOUND A 0.05% in GlucateSS-Glucamate SSE-20/Lauroglycol FCC, 40° C.): Stable/Ok 3 Months | Stability results ([3]; COMPOUND A 0.05% in Simulsol M45/Crodamol DA): Unstable | Stability results ([3]; COMPOUND A 0.05% in Tween 80/Arlamol E): Unstable | Stability results ([3]; COMPOUND A 0.2% in Cremophor EL/Labrafil M1944CS): Unstable | Stability results ([3]; COMPOUND A 0.2% in Cremophor RH40/Crodamol DA): Unstable | Stability results ([3]; COMPOUND A 0.2% in Simulsol M45/Crodamol DA): Unstable | Stability results ([3]; COMPOUND A 0.2% in Tween 80/Hexylene glycol): Unstable | Stability results ([3]; COMPOUND A 0.2% in Tween 80/Lauroglycol FCC): Unstable | Compound A in the receiving liquid [4]: not detected
Compound: CC(C)(C)c1cc(-c2cc(-c3ccc(C(=O)O)cc3)ccc2OCCO)ccc1N1CCCC1 [Compound A, 3″-tert-butyl-4′-(2-hydroxy-ethoxy)-4″-pyrrolidin-1-yl-[1,1′;3′,1″]-terphenyl-4-carboxylic acid]
